Results from US7238716B2, “Alkanoic acid derivatives process for their production and use thereof” (Takeda Pharmaceuticals Company Limited, priority 2000, dated 2007).

Row | Structure (SMILES) | melting point
1 | Cc1oc(-c2ccccc2)nc1COc1ccccc1COc1cccc(CC(=O)O)c1 [Example 34, 2-[3-[2-[(5-methyl-2-phenyl-4-oxazolyl)methoxy]benzyloxy]phenyl]acetic acid] | 104 to 105 °C
2 | COC(=O)Cc1cc(-c2ccccc2)ccc1OCc1ccc(OCc2nc(-c3ccccc3)oc2C)cc1 [Example 21, methyl 2-[2-[4-[(5-methyl-2-phenyl-4-oxazolyl)methoxy]benzyloxy]-5-phenylphenyl]acetate] | 111 to 112 °C
3 | CCOC(=O)CCc1ccc(OCc2ccc(OCc3nc(-c4ccccc4)oc3C)cc2)cc1 [Example 44, ethyl 3-[4-[4-[(5-methyl-2-phenyl-4-oxazolyl)methoxy]benzyloxy]phenyl]propionate] | 105 to 106 °C
4 | Cc1oc(-c2ccccc2)nc1COc1ccc(COc2cccc(CCC(=O)O)c2)cc1 [Example 3, 3-[3-[4-[(5-methyl-2-phenyl-4-oxazolyl)methoxy]benzyloxy]phenyl]propionic acid] | 157 to 158 °C
5 | COC(=O)Cc1cccc(OCc2ccc(OC)c(OCc3nc(-c4ccccc4)oc3C)c2)c1 [Example 131, methyl 3-[4-methoxy-3-[(2-phenyl-5-methyl-4-oxazolyl)methoxy]benzyloxy]phenylacetate] | 88 to 89 °C
6 | CCOc1ccc(OCc2ccc(OCc3nc(-c4ccccc4)oc3C)cc2)cc1CC(=O)O [Example 5, 2-[2-ethoxy-5-[4-[(5-methyl-2-phenyl-4-oxazolyl)methoxy]benzyloxy]phenyl]acetic acid] | 122 to 123 °C
7 | Cc1oc(-c2ccccc2)nc1/C=C/c1ccc(COc2ccccc2CC(=O)O)cc1 [Example 95, 2-[2-[4-[(E)-2-(5-methyl-2-phenyl-4-oxazolyl)ethenyl]benzyloxy]phenyl]acetic acid] | 189 to 190 °C
8 | CC(Nc1nc(-c2ccccc2)cs1)c1ccc(COc2ccc(CC(=O)O)cc2)cc1 (stereo not drawn) [Example 128, 4-[4-[methyl(4-phenyl-2-thiazolyl)aminomethyl]benzyloxy]phenylacetic acid] | 116 to 118 °C
9 | Cc1oc(-c2ccccc2)nc1COc1cccc(CSc2cccc(CC(=O)O)c2)c1 [Example 139, 2-[3-[3-[(5-methyl-2-phenyl-4-oxazolyl)methoxy]benzylthio]phenyl]acetic acid] | 81 to 82 °C
10 | COC(=O)Cc1cc(OC)ccc1OCc1ccc(OCc2nc(-c3ccccc3)oc2C)cc1 [Example 23, methyl 2-[5-methoxy-2-[4-[(5-methyl-2-phenyl-4-oxazolyl)methoxy]benzyloxy]phenyl]acetate] | 160 to 161 °C
11 | CCOC(=O)CCc1ccc(OCc2ccc(OCc3nc(-c4ccccc4)oc3C)cc2)cc1OCC [Example 65, ethyl 3-[2-ethoxy-4-[4-[(5-methyl-2-phenyl-4-oxazolyl)methoxy]benzyloxy]phenyl]propionate] | 64 to 65 °C
12 | CCOc1cc(OCc2ccccc2OCc2nc(-c3ccccc3)oc2C)ccc1CCC(=O)O [Example 73, 3-[2-ethoxy-4-[2-[(5-methyl-2-phenyl-4-oxazolyl)methoxy]benzyloxy]phenyl]propionic acid] | 112 to 113 °C
13 | Cc1oc(-c2ccccc2)nc1COc1ccccc1COc1ccccc1CC(=O)O [Example 56, 2-[2-[2-[(5-methyl-2-phenyl-4-oxazolyl)methoxy]benzyloxy]phenyl]acetic acid] | 145 to 146 °C
14 | COc1ccc(COc2ccccc2CC(=O)O)cc1OCc1nc(-c2ccccc2)oc1C [Example 49, 2-[2-[4-methoxy-3-[(5-methyl-2-phenyl-4-oxazolyl)methoxy]benzyloxy]phenyl]acetic acid] | 154 to 155 °C
15 | Cc1oc(-c2ccccc2)nc1COc1ccc(COc2ccc3ccccc3c2CCC(=O)O)cc1 [Example 47, 3-[2-[4-[(5-methyl-2-phenyl-4-oxazolyl)methoxy]benzyloxy]-1-naphthyl]propionic acid] | 161 to 162 °C
16 | Cc1oc(-c2ccccc2)nc1COc1cccc(COc2cccc(CC(=O)O)c2)n1 [Example 64, 2-[3-[[6-[(5-methyl-2-phenyl-4-oxazolyl)methoxy]-2-pyridyl]methoxy]phenyl]acetic acid] | 97 to 98 °C
17 | Cc1oc(-c2ccccc2)nc1COc1cccc(CSc2cccc(CCC(=O)O)c2)c1 [Example 140, 3-[3-[3-[(5-methyl-2-phenyl-4-oxazolyl)methoxy]benzylthio]phenyl]propionic acid] | 120 to 121 °C
18 | Cc1sc(-c2ccccc2)nc1COc1cc(COc2ccccc2CC(=O)O)on1 [Example 114, 2-[2-[[3-[(5-methyl-2-phenyl-4-thiazolyl)methoxy]-5-isoxazolyl]methoxy]phenyl]acetic acid] | 147 to 148 °C
19 | Cc1oc(-c2ccccc2)nc1COc1ccc(COc2ccc(O)cc2CC(=O)O)cc1 [Example 16, 2-[5-hydroxy-2-[4-[(5-methyl-2-phenyl-4-oxazolyl)methoxy]benzyloxy]phenyl]acetic acid] | 194 to 195 °C
20 | Cc1oc(-c2ccccc2)nc1COc1ccc(COc2ccc(CC(=O)O)cc2)cc1 [Example 9, 2-[4-[4-[(5-methyl-2-phenyl-4-oxazolyl)methoxy]benzyloxy]phenyl]acetic acid] | 166 to 167 °C

Row | Structure (SMILES) | melting point
21 | Cc1oc(-c2ccccc2)nc1COc1ccc(CSc2ccc(CCC(=O)O)cc2)cc1 [Example 67, 3-[4-[[4-[(5-methyl-2-phenyl-4-oxazolyl)methoxy]benzyl]sulfanyl]phenyl]propionic acid] | 157 to 158 °C
22 | Cc1sc(-c2ccccc2)nc1CCOc1cc(COc2ccccc2CC(=O)O)on1 [Example 117, 2-[2-[[3-[2-(5-methyl-2-phenyl-4-thiazolyl)ethoxy]-5-isoxazolyl]methoxy]phenyl]acetic acid] | 159 to 160 °C
23 | Cc1oc(-c2ccccc2)nc1COc1cccc(COc2ccccc2CC(=O)O)c1 [Example 31, 2-[2-[3-[(5-methyl-2-phenyl-4-oxazolyl)methoxy]benzyloxy]phenyl]acetic acid] | 117 to 118 °C
24 | Cc1oc(-c2ccccc2)nc1COc1ccc(COc2ccc(Br)cc2CC(=O)O)cc1 [Example 20, 2-[5-bromo-2-[4-[(5-methyl-2-phenyl-4-oxazolyl)methoxy]benzyloxy]phenyl]acetic acid] | 162 to 163 °C
25 | CCOc1ccc(OCc2ccccc2OCc2nc(-c3ccccc3)oc2C)cc1CCC(=O)O [Example 35, 3-[2-ethoxy-5-[2-[(5-methyl-2-phenyl-4-oxazolyl)methoxy]benzyloxy]phenyl]propionic acid] | 146 to 147 °C
26 | Cc1oc(-c2ccccc2)nc1COc1ccc(COc2ncccc2CC(=O)[O-])cc1.[Li+] | 207 to 209 °C
27 | COC(=O)Cc1ccccc1OCc1cncc(OCc2nc(-c3ccccc3)oc2C)c1 [Example 42, methyl 2-[2-[[5-[(5-methyl-2-phenyl-4-oxazolyl)methoxy]-3-pyridyl]methoxy]phenyl]acetate] | 77 to 78 °C
28 | CCOC(=O)CCc1cccc(OCc2ccc(OCc3nc(-c4ccccc4)oc3C)cc2)c1 [Example 2, ethyl 3-[3-[4-[(5-methyl-2-phenyl-4-oxazolyl)methoxy]benzyloxy]phenyl]propionate] | 90 to 91 °C
29 | Cc1oc(-c2ccccc2)nc1COc1ccc(COC(=O)Cc2cccc(OCc3ccc(OCc4nc(-c5ccccc5)oc4C)cc3)c2)cc1 [Example 53, 4-[(5-methyl-2-phenyl-4-oxazolyl)methoxy]benzyl 2-[3-[4-[(5-methyl-2-phenyl-4-oxazolyl)methoxy]benzyloxy]phenyl]acetate] | 90 to 91 °C
30 | COC(=O)Cc1ccccc1OCc1ccc(OCCc2nc(-c3ccccc3)oc2C)nc1 [Example 118, methyl 2-[2-[[6-[2-(5-methyl-2-phenyl-4-oxazolyl)ethoxy]-3-pyridyl]methoxy]phenyl]acetate] | 78 to 79 °C
31 | CCOC(=O)CCc1c(OCc2ccc(OCc3nc(-c4ccccc4)oc3C)cc2)ccc2ccccc12 [Example 46, ethyl 3-[2-[4-[(5-methyl-2-phenyl-4-oxazolyl)methoxy]benzyloxy]-1-naphthyl]propionate] | 86 to 87 °C
32 | Cc1oc(-c2ccccc2)nc1COc1ccc(COc2ccc3ccccc3c2CC(=O)O)cc1 [Example 39, 2-[2-[4-[(5-methyl-2-phenyl-4-oxazolyl)methoxy]benzyloxy]-1-naphthyl]acetic acid] | 187 to 188 °C
33 | Cc1oc(-c2ccccc2)nc1COc1ccccc1COc1ccc(CC(=O)O)cc1 [Example 69, 2-[4-[2-[(5-methyl-2-phenyl-4-oxazolyl)methoxy]benzyloxy]phenyl]acetic acid] | 173 to 174 °C
34 | COC(=O)Cc1ccccc1OCc1ccc(N(Cc2nc(-c3ccccc3)oc2C)C(=O)OC(C)(C)C)cc1 [Example 59, methyl 2-[2-[4-[(t-butoxycarbonyl)[(5-methyl-2-phenyl-4-oxazolyl)methyl]amino]benzyloxy]phenyl]acetate] | 85 to 86 °C
35 | CCCc1oc(-c2ccccc2)nc1COc1ccc(COc2cccc(CC(=O)O)c2)cc1 [Example 87, 2-[3-[4-[(2-phenyl-5-propyl-4-oxazolyl)methoxy]benzyloxy]phenyl]acetic acid] | 115 to 116 °C
36 | CCOC(=O)C=Cc1cccnc1OCc1ccc(OCc2nc(-c3ccco3)oc2C)c(OC)c1 [Example 135, ethyl 3-[2-[4-[[2-(2-furyl)-5-methyl-4-oxazolyl]methoxy]-3-methoxybenzyloxy]-3-pyridyl]propenoate] | 85 to 87 °C
37 | Cc1oc(-c2ccccc2)nc1CCc1noc(COc2cccc(CC(=O)O)c2)n1 [Example 109, 2-[3-[[3-[2-(5-methyl-2-phenyl-4-oxazolyl)ethyl]-1,2,4-oxadiazol-5-yl]methoxy]phenyl]acetic acid] | 93 to 94 °C
38 | CCOC(=O)C=Cc1c(OCc2ccc(OCc3nc(-c4ccccc4)oc3C)cc2)ccc2ccccc12 [Example 54, ethyl 3-(2-(4-((5-methyl-2-phenyl-4-oxazolyl)methoxy)benzyloxy)-1-naphthyl)-2-propenoate] | 73 to 74 °C
39 | Cc1oc(-c2ccccc2)nc1COc1ccc(COc2ncccc2CC(=O)[O-])cc1.[K+] | 157 to 159 °C
